Experimental findings from patent US20110142866A1, “PEPTIDE ANALOGUES AND CONJUGATES THEREOF” (Eldrug S.A., priority 2007, published 2011) are described below.

Entries after “also recorded” stand apart in the source; their conditions may differ.

Format in all cases: in vivo, SJL/J mice
The subject of experiment [1] is IFN-γ secretion by T cells. The experiment is described as follows: IFN-γ ELISpot of spleen cells from immunized mice. On the set-up: key to IFN-γ: −: negative; +/−: very weak; +: weak; ++: moderate; +++: strong. How it is done: (§1) Female 6-8 week old SJL/J mice used in all experiments, were purchased from Walter and Eliza Hall Institute (VIC Australia) and housed at the Biological Research Laboratory at Burnet Institute at Austin, Heidelberg, Australia. SJL/J mice were immunized twice on days 0, 14 intradermally (base of tail) with 50 μg MBP83-99 peptide analogue-KLH-reduced mannan.
(§2) ELISpot analyses specific T cell responses to antigens by detecting the secretion of specific cytokines. Spleen cells from immunized SJL/J mice were isolated 14 days after immunization and assessed by ELISpot for IFN-γ, IL-4 or IL-10 secretion by T cells. IFN-γ ELISpot assay was performed on MultiScreen-IP Filter Plate (MAIP S4510) with hydrophobic PVDF filters (Millipore, UK) while IL-4 and IL-10 ELISpot was performed on MultiScreen-HA Filter Plate (MAHA S4510) with mixed cellulose esters filters (Millipore, UK). MAIP S4510 plates were pre-wet with 50 μl of 70% ethanol, washed 5 times with 200 μl sterile PBS and coated with 70 μl of 5 μg/ml anti-IFN-γ capture antibody, AN18 (Mabtech, Australia) in PBS and left to incubate at 4° C. O/N. While 70 μl of 5 μg/ml anti-IL-4 and anti-IL-10 capture antibody (Mabtech, Australia) was added directly to MAHA S4510 plates and incubated at 4° C. O/N without 70% ethanol treatment. Following 5 washes with PBS, plates were blocked by adding 200 μl of culture media (supplemented with 2.5% FCS) and incubated for 2 hours at 37° C. The blocking media was discarded and 10 μg/ml recall peptides (MBP83-99 peptide analogues not conjugated to KLH-reduced mannan) were added into each defined well. Con A (1.0 μg/ml; IL-4 and IFN-γ) or LPS (1.0 μg/ml; IL-10) were used as an internal positive controls and no peptide was used as negative control. Triplicate wells were set up for each condition. 5×10^5 spleen cells in 100 μl culture media were seeded into each well and incubated for 18 hours for IFN-γ, 24 hours for IL-4 and 48 hours for IL-10 at 37° C. Plates were washed 5 times PBS/0.05% Tween 20 and 5 times PBS and incubated for 2 hours at RT with anti-murine IFN-γ, IL-4 or IL-10 monoclonal antibody-biotin. Plates were washed and streptavidin-ALP was added at 1.0 μg/ml and incubated for 2.0 hours at RT. Spots of activity were detected using a colorimetric AP kit (Biorad, Hercules, Calif. USA) and counted using an AID ELISpot plate reader (Autoimmun Diagnostika GmbH, Germany). Data are presented as mean spot forming units (sfu) per 0.5×10^6 cells +/−standard error of the mean (SEM).
(§3) MBP87-99, [R^91, A^96]MBP87-99 or [A^91, A^96]MBP87-99 peptides were dissolved in PBS and emulsified in an equal volume of complete Freund's adjuvant (CFA) which contained 1.0 mg/ml of heat killed Mycobacterium tuberculosis H37RA (Sigma, Victoria, Australia). SJL/J mice were given one subcutaneous injection containing 50 μg peptide into the base of tail.
(§4) SJL/J mice were immunized twice on days 0 and 14 intradermally (base of tail) with 50 μg MBP87-99-KLH-reduced mannan, [R^91, A^96]MBP87-99-KLH-reduced mannan or [A^91, A^96]MBP87-99-KLH-reduced mannan conjugates.
(§5) ELISpot detects specific T cell responses to antigens by measuring the secretion of specific cytokines from individual cells. Spleen cells from immunized SJL/J mice were isolated 28 days after CFA immunization or 14 days after the last immunization with reduced mannan-peptides and assessed by ELISpot for IFN-γ and IL-4 secretion by T cells. IFN-γ ELISpot assay was performed on MultiScreen-IP Filter Plate (MAIP S4510) with hydrophobic PVDF filters (Millipore, UK), while IL-4 ELISpot assays were performed on MultiScreen-HA Filter Plate (MAHA S4510) with mixed cellulose esters filters (Millipore, UK). MAIP S4510 plates were pre-weted with 50 μl of 70% ethanol, washed 5 times with 200 μl of sterile phosphate-buffered saline (PBS) and coated with 70 μl of 5 μg/ml anti-IFN-γ capture antibody, AN18 (Mabtech, Australia) in PBS and incubated O/N at 4° C. […]

Experiment [2] relates to IL-4 secretion by T cells. The experiment is described as follows: IL-4 ELISpot of spleen cells from immunized mice. On the set-up: key to IL-4: −: negative; +/−: very weak; +: weak; ++: moderate; +++: strong. The note with it: for IL-4 responses: peptide conjugated to reduced mannan, two injections. How it is done:
as §1, §2, §3, §4, §5

For another experiment, the system named is spleen cells. In words: T cell proliferation assay ([3H]-thymidine uptake). The note with it: for Proliferation cross reaction: Table 3, complete Freund's adjuvant; for proliferation of MBP83-99 specific T cells to recall analogue (in words): mice immunized with agonist MBP83-99 in CFA; for Proliferation: Table 2, peptide analogues conjugated to reduced mannan-KLH. On the set-up: key to Proliferation / Proliferation cross reaction: −: negative; +/−: very weak; +: weak; ++: moderate; +++: strong. How it is done:
Spleen cells from immunized SJL/J mice were isolated 14 days after immunization and assessed by T cell proliferation assay. 1×10^5 spleen cells in 100 μl culture media were seeded into 96 U-bottom plates and incubated for 1-6 days at 37° C. in the presence of recall peptide (10 μg/ml), ConA (positive control) or no peptide (negative control). Proliferation was assessed by adding 1 μCi of [^3H]-thymidine per well to one plate per time point (days 1-6). Cells were incubated for a further 6 h before harvesting onto glass fiber filters. [^3H] uptake was measured using a β-scintillation counter (Top Count Gamma Counter, Packard, USA).
Proliferation assays were used to detect the level of antigen specific T cells by measuring the [3H]thymidine uptake of T cells proliferating in the presence of peptides on days 1-6. Spleen cells from mice immunized with linear agonist MBP83-99 peptide were isolated 28 days after immunization and assessed by T cell proliferation assay. T cells proliferated to MBP83-99 peptide, reaching a peak by day 5 of up to 25 000 cpm (FIG. 9D). In addition, the MBP83-99 specific T cells cross-reacted with linear [A^91]MBP83-99 and mutant cyclo(83-99)[A^91]MBP83-99 peptide analogues (FIG. 9D). The cyclo(83-99)[A^91]MBP83-99 peptide proliferated similarly to linear [A^91]MBP83-99 peptide, reaching a peak on day 5 (FIG. 9D). ConA (internal control) yielded proliferation of more than 75 000 cpm peaked on day 2 and was excluded from the figures, and no peptide (cells alone) was used as background negative control.

Setting [3] is: Table 2, peptide analogues conjugated to reduced mannan-KLH.
Setting [4] is: Table 3, peptide analogues emulsified in complete Freund's adjuvant.
Setting [5] is: 50 μg peptide conjugated to reduced mannan, two intradermal injections, spleen cells 14 days post-immunization.
Setting [6] is: 50 μg peptide emulsified in CFA, one injection, spleen cells 28 days.

As for “E N P V V H F F E N I V T P R T P (ENPVVHFFENIVTPRTP) [[E^91]MBP83-99]”, the IFN-γ result in experiment [1] (setting [3]) and in experiment [1] (setting [4]) was “−” in each case. In addition, the “IL-4 secreting T cells (in words)” value in experiment [2] (setting [5]) is recorded as “high levels”. Further, the results for the IL-4 result in experiment [2] (setting [3]) and in experiment [2] (setting [4]) were “+++” and “−”, respectively. Also, the Proliferation cross reaction entry in the experiment with spleen cells is reported as “++”.

In the case of “cyclo(83-99)E N P V V H F F A N I V T P R T P (ENPVVHFFANIVTPRTP; cyclised or stapled) [cyclo(83-99)[A^91]MBP83-99]”, the “IFN-γ secreting T cells (in words)” value in experiment [1] (setting [5]) is listed as “negative”; in experiment [1] (setting [6]), “lower”. The IFN-γ entry in experiment [1] (setting [3]) and in experiment [1] (setting [4]) was “−” throughout. The “IL-4 secreting T cells (in words)” value in experiment [2] (setting [5]) was “negative”; in experiment [2] (setting [6]), “did generate IL-4”. Besides, the IL-4 result in experiment [2] (setting [3]) and in experiment [2] (setting [4]) was “−” each time. In addition, the IL-4 responses entry in experiment [2] is “up to 70 SFU/0.5 million cells”. The Proliferation cross reaction entry in the experiment on spleen cells is “++”. Also, the “proliferation of MBP83-99 specific T cells to recall analogue (in words)” value (shortened to “proliferation … to recall analogue (in words)”) in the experiment with spleen cells is reported as “cross-reacted”.

Turning to “E N P V V H F F A N I V T P R T P (ENPVVHFFANIVTPRTP) [[A^91]MBP83-99]”, the “IFN-γ secreting T cells (in words)” value in experiment [1] (setting [5]) is on record as “negative”; in experiment [1] (setting [6]) it was “lower”. Besides, the IFN-γ entry in experiment [1] (setting [3]) and in experiment [1] (setting [4]) was “−” throughout. Also, the “IL-4 secreting T cells (in words)” value in experiment [2] (setting [5]) is reported as “high levels”; in experiment [2] (setting [6]), “not able to generate IL-4”. In addition, the figures for the IL-4 result in experiment [2] (setting [3]) and in experiment [2] (setting [4]) were “+++” and “−”, respectively. In addition, the IL-4 responses entry in experiment [2] is on record as “up to 600 SFU/0.5 million cells”. Moreover, in the experiment on spleen cells, the Proliferation cross reaction result was “++”. The “proliferation … to recall analogue (in words)” value with spleen cells is “cross-reacted”.

Turning to “E N P V V H F F R N I V T A R T P (ENPVVHFFRNIVTARTP) [[R^91, A^96]MBP83-99]”, in experiment [1] (setting [5]), the “IFN-γ secreting T cells (in words)” value was “no IFN-γ”. The figures for the IFN-γ entry in experiment [1] (setting [3]) and in experiment [1] (setting [4]) were “−” and “++”, respectively. Further, the “IL-4 secreting T cells (in words)” value in experiment [2] (setting [5]) was “high levels”. In addition, the IL-4 result in experiment [2] (setting [3]) is “+++”; in experiment [2] (setting [4]), “++”. Besides, in the experiment on spleen cells, the Proliferation cross reaction entry is listed as “+/−”. The “proliferation … to recall analogue (in words)” value in the experiment on spleen cells is given as “weakly proliferated”.

On to “E N P V V H F F K N I V T P R T P (ENPVVHFFKNIVTPRTP) [MBP83-99, reference compound]”, for which the “IFN-γ secreting T cells (in words)” value in experiment [1] (setting [5]) was “weak and generated IFN-γ secreting T cells and high levels”; in experiment [1] (setting [6]) it was “induced IFN-γ responses”. In addition, the values for the IFN-γ entry in experiment [1] (setting [3]) and in experiment [1] (setting [4]) were “++” and “+”, respectively. The “IL-4 secreting T cells (in words)” value in experiment [2] (setting [5]) is reported as “did not stimulate; also recorded: weak or no; also recorded: low levels”; in experiment [2] (setting [6]) it was “did not induce IL-4”. Moreover, the IL-4 entry in experiment [2] (setting [3]) and in experiment [2] (setting [4]) was “−” throughout. Also, the “T cell proliferation, peak” value with spleen cells (mice immunized with linear MBP83-99 (CFA), spleen cells 28 days, recall peptide, peak by day 5) is “up to 25 000 cpm”.

For “E N P V V H F F Y N I V T P R T P (ENPVVHFFYNIVTPRTP) [[Y^91]MBP83-99]”, in experiment [1] (setting [3]), the IFN-γ entry is recorded as “−”. In addition, in experiment [1] (setting [4]), the IFN-γ result is “−”. The “IL-4 secreting T cells (in words)” value in experiment [2] (setting [5]) was “high levels”. Moreover, the IL-4 result in experiment [2] (setting [3]) is “+++”. For the same compound, in experiment [2] (setting [4]), the IL-4 result is “−”. In the experiment on spleen cells, the Proliferation entry is “+/−”, the Proliferation cross reaction entry is recorded as “+/−” and the “proliferation … to recall analogue (in words)” value is “weakly proliferated”.

On to `CC[C@H](C)[C@@H]1NC(=O)[C@H](CC(N)=O)NC(=O)[C@H](CCCCN)NC(=O)[C@H](Cc2ccccc2)NC(=O)[C@H](Cc2ccccc2)NC(=O)[C@H](Cc2c[nH]cn2)NC(=O)[C@H](C(C)C)NC(=O)[C@H](C(C)C)NC(=O)[C@@H]2CCCN2C(=O)[C@H](CC(N)=O)NC(=O)[C@H](CCC(=O)O)NC(=O)[C@@H]2CCCN2C(=O)[C@H]([C@@H](C)O)NC(=O)[C@H](CCCNC(=N)N)NC(=O)[C@@H]2CCCN2C(=O)[C@H]([C@@H](C)O)NC(=O)[C@H](C(C)C)NC1=O` [cyclo(83-99)MBP83-99, cyclo(83-99)E N P V V H F F K N I V T P R T P], for which the “IFN-γ secreting T cells (in words)” value in experiment [1] (setting [5]) was “weak and generated IFN-γ secreting T cells”; in experiment [1] (setting [6]) it was “induced IFN-γ responses”. Also, the IFN-γ entry in experiment [1] (setting [4]) is “+”. Moreover, the “IL-4 secreting T cells (in words)” value is given as “did not stimulate; also recorded: weak or no” in experiment [2] (setting [5]) and “induced IL-4” in experiment [2] (setting [6]). Further, the IL-4 entry in experiment [2] (setting [4]) is recorded as “−”.

On to “E N P V V H F F F N I V T P R T P (ENPVVHFFFNIVTPRTP) [[F^91]MBP83-99]”, for which the “IFN-γ secreting T cells (in words)” value in experiment [1] (setting [5]) was “weak and induced”. The IFN-γ entry in experiment [1] (setting [3]) and in experiment [1] (setting [4]) was “++” each time. In addition, the “IL-4 secreting T cells (in words)” value in experiment [2] (setting [5]) is given as “high levels; also recorded: induced”. Also, the figures for the IL-4 entry in experiment [2] (setting [3]) and in experiment [2] (setting [4]) were “+++” and “−”, respectively. Moreover, the Proliferation result with spleen cells is “+++”. For the same compound, in the experiment with spleen cells, the Proliferation cross reaction entry is recorded as “++”. The “T cell proliferation to recall peptide (in words)” value with spleen cells (immunization with reduced mannan-KLH-peptide) is reported as “strong”.
